Experimental data: patent US20060281807A1, “Quassinoid compositions for the treatment of cancer and other proliferative diseases” (Tapestry Pharmaceuticals, Inc., priority 2005, published 2006)
Converted amounts (≈) assume the structure as drawn. “And” between values parts separate entries of the source, which are not always exact repeats. Identical values can stand only once. Like-named read-outs stand apart in the source and are kept apart here.

Key:
[1] = system: H125 (human lung carcinoma); test: Disk diffusion assay, zone of inhibition, H125; type: cell-based; details: 1 mg/mL
Description: (§1) A disk diffusion assay was performed to define the differential cell killing ability of 15-O-(3′-hydroxy-3′-isopropyl-4′-methylpentanoyl)bruceolide. Seven cell types were assayed: L1210 (ATCC CCL-219) (murine leukemia), CCRF-CEM (ATCC CCL-119) (human leukemia), Colon 38 (murine colon adenocarcinoma), HCT116 (ATCC CCL-247) (human colorectal carcinoma), H125 (human lung carcinoma). The murine and human granulocyte/macrophage progenitor cell line (CFU-GM), served as controls.
Colon 38 cells (about 1 gram) were cut into small fragments in 15 mL of Hank's Balanced Salt Solution (HBSS) over a 100-mesh sieve and gently forced through by the scissors with HBSS constantly perfusing the sieve. The resulting material was then drawn into and out of a 5 mL syringe without a needle to further disperse the cell clumps. The cell solution was diluted and plated in 0.3% agarose in DMEM plus 10% heat-inactivated Bovine Calf Serum (BCS). For plating of all of the cell types (except controls), the 60 mm plates were first prepared with a hard agar bottom layer (0.6% agar in RPMI-1640 plus 15% BCS).
HCT116 and H125 cells were maintained in cell culture, and were removed from culture by a trypsin-collagenase-DNAase cocktail. The plating efficiencies of each cell type was sufficiently high that 30,000 cells in 3 mL produced the desired number of colonies (i.e., over 10,000 per plate) in 60 mm plates. This soft agar top layer (0.3% with the serum and media as above) plus the titrated tumor cells were poured into the plates and allowed to solidify.
(§2) A 15 μl sample of each compound was dropped onto a 6.5 mm disk (Baxter filter disks). The disks were allowed to dry overnight and then placed close to the edge of a petri dish. Depending upon the cell type, the dishes were incubated for 7 to 10 days, and examined by an inverted stereo-microscope (10×) for measurement of the zone of inhibition. The zone of inhibition was measured from the edge of the filter disk to the beginning of normal-sized colony formation. The diameter of the filter disk, 6.5 mm, was arbitrarily taken as a zone of 200 units. Compounds that were selective for killing solid tumors, as compared to leukemia or normal cells (“solid tumor selective”) were defined as those compounds which produced a difference in zones between solid tumor cells and either normal or leukemia cells of at least 250 units. The results of this analysis are set forth in Table 4, which illustrates the relative diameters of the zones of inhibition by various drugs on the growth of the respective cell types at various drug dilutions.

murine CFU-GM = test: Disk diffusion assay, zone of inhibition, murine CFU-GM; type: cell-based; details: 1 mg/mL
Description: as §1
(§3) For CFU-GM cells, the femoral marrow of BD2F1 mice was flushed with MEM alpha (2 mL per femur). The cells were passed through an 18 gauge needle twice and the monodispersed suspension was counted. A total of 1.5×10^6 cells were plated in 3 mL of 0.3% agar with the addition of 10% L cell conditioned media, which provided colony stimulating factor, in MEM-alpha plus 10% BCS. For human CFU-GM, the cells were obtained from Poietic Technologies, Inc. (Gaithersburg, Md.) and washed twice with PBS before being titered and added to the agar mixture. The same cell number, culture conditions, and conditioning factors used with respect to the murine CFU-GM cells were used with the human cells, except that the cultures were assessed after 10 days of incubation.
as §2

human CFU-GM = type: cell-based; details: 1 mg/mL
Description: as §1, §3, §2

HCT-116 cells [2] = test: HCT-116 cytotoxicity, viable cell count by trypan blue; type: cell-based, human; details: for IC90/IC50: HCT-116; for IC50 / IC90: Homo sapiens
HCT-116 cells [3] = test: Clonogenic assay, HCT-116; type: cell-based, human; details: colonies at 7 days
Description: A clonogenic assay was performed using HCT-116 cells. Specifically, HCT-116 cells were seeded at 200 to 20,000 cells in 60 mm dishes. […] At either 2 hours or 24 hours following drug administration, the drug-containing media was removed, and fresh media without drug was added. In addition, one group of cells was subjected to continuous drug exposure for the entire incubation period. The dishes were incubated for 7 days (at 37° C. and 5% CO2), media was removed, and the colonies were stained with methylene blue. Colonies containing 50 cells or more were counted. The results were normalized to an untreated control. Plating efficiency for the untreated cells was about 90%. Repeat experiments also were carried out to define the cell survival range between 1 (100%) and 10^−3 (0.1%) survival. A survival rate of 10^−1 was chosen as the minimal level that would be required in vivo to achieve therapeutic efficacy against HCT-116 cells in tumor-bearing mice. The clonogenic dose response to 15-O-(3′-hydroxy-3′-isopropyl-4′-methylpentanoyl)bruceolide is illustrated in FIG. 4. The clonogenic dose response to 15-(3-isopropyl-4-methyl-2-pentenoyl)-bruceolide is illustrated in FIG. 5.

[4] = Maximum tolerated dose in mice; details: for MTD at 30 days / MTD: mouse, in vivo, iv
Description: Formulations containing 15-O-(3′-hydroxy-3′-isopropyl-4′-methylpentanoyl)bruceolide, 15-(3-isopropyl-4-methyl-2-pentenoyl)-bruceolide, and, for comparative purposes, bruceantin, or peninsularinone were prepared by solubilizing each compound in up to 100 mg/mL of ethanol. These solutions were diluted 1:1 with a stabilizer (Cremophor/propylene glycol). The solutions were then diluted in saline (1:10 minimum).
The maximum tolerated dose (MTD) was determined by a two-stage experiment. In the first stage, between 1 and 10 mg/mL of the formulation was prepared as described above. Next, 0.25 mL of the formulation was injected intravenously into one 20 gram mouse (0.75 mg/mouse). If the animal died within 30 days of injection, a series of subsequent 2-fold dilutions were administered to individual mice until an MTD was defined. […] The second stage of the study involved increasing the number of mice per dose to four, and retesting four dilutions that bracket the MTD from the individual mouse study. The four dilutions were the MTD, a dosage twice the MTD, a dosage ½ the MTD, and a dosage ¼ the MTD.

[5] = no dilution, 15 μl on disk, 6.5 mm = 200 units
[6] = intravenous, first stage, one mouse per dose
[7] = intravenous, second stage, four mice per dose
[8] = maximum tolerated dose, Dose - 1 Mouse, first stage, one mouse per dose
[9] = maximum tolerated dose, Dose - 4 Mice, second stage, four mice per dose

Row | Compound | zone of inhibition, H-125 M ([1]; dilution 1/1000) [units] | zone of inhibition, H-125 M [1, 5] [units] | zone of inhibition, murine CFU-GM (murine CFU-GM; dilution 1/10) [units] | zone of inhibition, murine CFU-GM (murine CFU-GM; dilution 1/100) | zone of inhibition, murine CFU-GM (murine CFU-GM; dilution 1/1000) [units] | zone of inhibition, human CFU-GM (human CFU-GM; dilution 1/10) [units] | zone of inhibition, human CFU-GM (human CFU-GM; dilution 1/100) [units] | IC90/IC50 (HCT-116 cells [2]) | Concentration Required for 10^−1 Survival Fraction (HCT-116 cells [3]; HCT-116, 2 Hour Exposure) [μg/mL] | Concentration Required for 10^−1 Survival Fraction (HCT-116 cells [3]; HCT-116, 24 Hour Exposure) | Concentration Required for 10^−1 Survival Fraction (HCT-116 cells [3]; HCT-116, Continuous Exposure) | maximum tolerated dose, Dose - 1 Mouse [4, 6] [mg/mouse] | maximum tolerated dose, Dose - 4 Mice [4, 7] [mg/mouse] | also measured
1 | COC(=O)[C@@]12OC[C@@]34C1[C@@H](OC(=O)C=C(C(C)C)C(C)C)C(=O)O[C@@H]3C[C@H]1C(C)=C(O)C(=O)C[C@]1(C)[C@H]4[C@@H](O)[C@@H]2O (stereo partly shown) [15-O-(3′-isopropyl-4′-methyl-2′-pentenoyl)-bruceolide] | 100 | >1000 | 650 | 350 units and 600 units | 0 | >1000 | 550 | 7 | >10 | 1.5 × 10^0 μg/mL | 1.5 × 10^−3 μg/mL | 0.05 | 0.25 | zone of inhibition, H-125 M ([1]; dilution 1/10): 1100 units; zone of inhibition, H-125 M ([1]; dilution 1/100): 500 units; IC50 (HCT-116 cells [2]; HCT-116, 72 h): 1.5 ng/mL (≈ 0.0026 µM); IC90 (HCT-116 cells [2]; HCT-116, 72 h): 10 ng/mL (≈ 0.0173 µM); mice survived the duration of the experiment ([4]; dose of 0.1, 0.075, 0.05, or 0.025 mg/mouse, intravenous): 100%; MTD at 30 days [4, 8]: 2.9 mg/kg; MTD at 30 days [4, 9]: 4 mg/kg
2 | COC(=O)[C@@]12OC[C@@]34C1[C@@H](OC(=O)CC(O)(C(C)C)C(C)C)C(=O)O[C@@H]3C[C@H]1C(C)=C(O)C(=O)C[C@]1(C)[C@H]4[C@@H](O)[C@@H]2O (stereo partly shown) [15-O-(3′-hydroxy-3′-isopropyl-4′-methylpentanoyl)bruceolide] | 0 | >1000 | 50 | 300 units and 200 units | 0 | 900 | 600 | 35 | >10 | 1 × 10^0 μg/mL | 7 × 10^−3 μg/mL | 3.2 | 1.5 | zone of inhibition, murine CFU-GM (murine CFU-GM; dilution 1/400): 100 units; IC50 (HCT-116 cells [2]; 72 h, HCT-116, 3 days with compound, viable cells, by interpolation, read-out: IC50): 1.9 ng/mL (≈ 0.0032 µM); IC90 (HCT-116 cells [2]; 72 h, HCT-116, 3 days with compound, viable cells, by interpolation, read-out: IC90): 67 ng/mL (≈ 0.113 µM); mice survived the duration of the experiment ([4]; dose of either 1.5 or 0.75 mg/mouse, intravenous (FIG. 6)): 100%; MTD ([4]; MTD, mice): 60 to 65 mg/kg/day; MTD [4, 8]: 109 mg/kg; MTD [4, 9]: 60 mg/kg
